Consider 25 compounds from patent publication US9505741B2, “Prolylhydroxylase inhibitors and methods of use” (CORNELL UNIVERSITY, priority 2010, dated 2016).

Series [1] has as its system HIF ODD-luc reporter (HIF PHD-controlled stability). Nature of the series: HTS with cell-based HIF ODD-luciferase reporter (SH-SY5Y-ODD-luc cells). Also noted: species or system human. Particulars: three hours; for activation at 10 µM: Homo sapiens, 3 h, read-out: reporter activation (%) relative to ciclopirox (100%) and DMSO (0%). The text has this:
For HTS, a cell-based reporter system was employed. The cell-based reporter system was generated by fusing HIF-1a oxygen degradable domain (ODD) to luciferase (Safran M. et al., PNAS, 2006, 103, 105-110), which represents a cell-based capture assay monitored by the consumption of the luciferase-labeled HIF substrate under the conditions more physiological than in vitro test tubes. In accord with their structure activity relationship in reporter assay, the best “hits” stabilize HIF1, upregulate known HIF target genes in a human neuronal line, and exert neuroprotective effects in established model of oxidative stress in cortical neurons.
The reporter cell lines constitutively expressing ODD-luc (human neuroblastoma, SH-SY5Y) were stable for more than one year without significant change in their response to canonical PHD inhibitors such as DFO, dihydroxybenzoate (DHB), dimethyloxalylglycine (DMOG), and ciclopirox (FIG. 1B). In order to verify the specificity of luciferase changes as an assay for PHD activity, several control lines were developed: the control line expressing ODD-luc with proline 564 and 567 mutated to Ala generates luciferase fusion that cannot be degraded and experimentally identifies a ceiling level of ODD-luc protein attainable in these cells. The background signal for the wild-type HIF ODD-luc line (PYIP) corresponds to approximately 5-6% of the ODD-luc levels in the control line AYIA (double mutant P564A/P567A line) (FIG. 2). Treatment with 10 μM ciclopirox results in a 10-fold increase of a background signal for the wild-type ODD-luc reporter (PYIP line), i.e. reaches almost 50% of the threshold value (FIG. 2).
The assay was optimized for HTS format to provide Z values above 0.7. SH-SY5Y-ODD-luc cells were plated into 384—well white flat-bottom plates at 7,000 cell/well in 30 μl of serum and incubated overnight at 37° C., 5% CO2. The next day, compounds were added to a final concentration of 10 μM, plates were incubated for three hours at 37° C., and luciferase activity was measured using SteadyGlo™ reagent (Promega). Each plate had two internal standards, ciclopirox (100%), and DMSO (0%). The reporter activation (%) was calculated as a ratio (L−LDMSO)/(Lciclopirox−LDMSO). Hits were defined as those >25%. HTS of 85,000 compounds was performed at Rockefeller HTS Resource Center. 295 hits from the initial screen have been tested in quadruplicate, 160 were confirmed. Classification into 10 structural clusters has been done manually; 25 hits were singletons.

Series [2] has the same test system. Nature of the series: ODD-luc reporter, concentration titration and kinetics of reporter activation (extended SAR). It counts as cell-based, human. The conditions noted are these: for Ki: linear plot 1/(K0−v) vs inhibitor concentration, read-out: apparent inhibition constant from time course of reporter activation. The text has this: The HIF ODD-luciferase reporter system is controlled by the rate of PHD catalyzed reaction, and from an enzyme kinetics point of view, it is a “capture assay” monitored by the consumption of a substrate, the heterologously expressed HIF ODDluciferase fusion protein. In the kinetic regime, i.e. monitoring the time-course of luminescence changes (FIG. 3A), the ODD-luc reporter system permits quantitative characterization of promoter capacity (Ko, rate of fusion protein generation), enzyme activity, and inhibition constant determination.
The rate of fusion accumulation equals the rate of its production (Ko) minus the rate of the rate-limiting step, controlled by HIF PHDs, which obeys Michaelis-Menten kinetics, as follows: v=d[ODDluc]/dt=K0−k1[PHD][ODDluc]/{Km(1+[I]/K1)+[ODDluc]} (Eq.1)
The background luminescence signal calibrated with recombinant luciferase allows an estimation of the steady-state concentration of the ODD-luc fusion protein. Under the conditions used the steady-state value of 60 rlu (relative light units) corresponds to 1 pg luciferase protein; dividing this number by the total cell volume taken as a single cell volume (233μ^3) multiplied by 30,000 cells/well density (number of cells in a 96 well dish), the ODD-luc fusion protein steady-state concentration is found to be equal to 2.3 nM, which is well below all reported Km values for HIF1 (Dao, J. H., et al., Anal Biochem 384, 213-223 2009; Hewitson, K. S., et al., Methods Enzymol 435, 25-42 2007; Koivunen, P., et al., J Biol Chem 281, 28712-28720 2006; Tuckerman, J. R., et al., FEBS Lett 576, 145-150 2004. Therefore, it is preferable to work under nonsaturating conditions with respect to HIF substrate, i.e. optimal conditions for selecting inhibitors competitive against HIF substrate. Moreover, as compared to the in vitro assay, which uses a 19 amino acid peptide fragment surrounding the oxygen dependent domain (ODD), the instant ODD-luciferase construct contains 123 amino acid acids, and thus, more closely emulates the behavior of native HIF. The initial concentration of fusion can be considered much lower than Km, and thus, can be ignored in the rate equation: v=d[ODDluc]/dt=K0−k1[PHD][ODDluc]/Km(1+[I]/K1) (Eq.2)
Knowing the capacity of the promoter, the inhibition constant can be determined, but not the inhibition type, from the initial rates of signal accumulation at varied fixed concentrations of potential inhibitor. The capacity of promoter, K0 can be determined under the conditions of total inhibition of PHD activity by means of complete iron deprivation achieved in the presence of high concentrations of ciclopirox, i.e. when the increase in the ciclopirox concentrations give no further increase in the rate of luciferase signal growth (FIG. 3B). […]

Series [3] is described as follows: Iron binding by calcein displacement from its iron complex. Format: physicochemical. The method, then:
The iron chelation ability is determined by displacement of calcein from its complex with iron monitored by fluorescence (excitation 490 nm, emission 523 nm, cut-off 515 nm) on a Spectramax M5e platereader (Molecular Devices). The apparent binding constant for calcein (ca.50 nM) was determined from Fe titration curve for 1 μM calcein in 5 mM Tris-HCl buffer, pH 7.5. The ratio between the iron binding constant for calcein and a particular compound, i.e., KQ/KCa, was estimated by fitting the titration curve into the dependence of [Fe]o vs. Y, where Y═[Ca—Fe]/[Ca] is a ratio of calcein-bound Fe to free (fluorescent) calcein: [Fe]o=KCaY+[Ca]oY/(Y+1)+[Q]oY/(Y+KQ/KCa) (Eq.4)
The association rate constant was determined as the second order rate constant for calcein displacement from its complex with iron (1 μM:1 μM) upon addition of an oxyquinoline (5-20 μM) calculated from the slope of a linear plot of the initial rate of calcein release vs. the concentration of oxyquinoline added. All experiments were performed in triplicates or more. All values are presented as mean±S.E.M.

Bounds are passed on as bounds.

Take `NCCc1ccc(O)c(O)c1` [dopamine, reference compound]: in series [1] (10 μM), the “reporter activation in HTS, in words” value was “not”. Turning to `CCOC(=O)c1ccc(O)c(O)c1` [DHB, Ethyl-3,4-dihydroxybenzoate], in series [2] (FIG. 1B), the “concentration at which the reporter is activated” value is above 50 µM. Also, the Ki in series [2] was found to be 520 µM. For the compound `O=C1/C(=C\c2ccc(O)c(O)c2)SC(=S)N1c1ccccc1` [VI, (E)-5-(3,4-dihydroxybenzylidene)-3-phenyl-2-thioxothiazolidin-4-one], the activation at 10 µM in series [1] (SH-SY5Y-ODD-luc) was 38%. A word on the IC50: it is the concentration that inhibits the measured activity by half. In the case of `N[C@@H](Cc1ccc(O)c(O)c1)C(=O)O` [L-Dopa, reference compound], the “fold reporter activation over background” value in series [1] (10 μM, SH-SY5Y-ODD-luc) came out at 3 fold. The activation at 10 µM in series [1] (SH-SY5Y-ODD-luc) stood at 21%. The IC50 in series [2] (Homo sapiens, ODD-luc reporter) amounted to 15 µM. `CCC(C)C(N)C(=O)Nc1nnc(-c2ccc(Br)cc2)s1` (stereo not drawn) [2-amino-N-(5-(4-bromophenyl)-[1,3,4]thiadiazol-2-yl)-3-methylpentanamide]: in series [1] (10 μM), the “reporter activation in HTS, in words” value was “no reporter activation at all”.

As to `Cc1cc(C2CCCCC2)n(O)c(=O)c1` [ciclopirox, reference compound], the “fold reporter activation over background” value in series [1] (10 μM, SH-SY5Y-ODD-luc) is 10 fold. `O=C1/C(=N\Nc2nc3ccccc3s2)C(c2ccccc2)=NN1c1ccccc1` [(Z)-4-(benzo[d]thiazol-2-ylhydrazono)-1,3-diphenyl-1H-pyrazol-5(4H)-one]: the activation at 10 µM in series [1] (SH-SY5Y-ODD-luc) was found to be 70%. In the case of `COC(=O)CNC(=O)C(=O)OC` [DMOG, dimethyloxalylglycine], the Ki in series [2] amounted to 1300 µM. For `Oc1cccc(CN2CCN(CCOC(c3ccccc3)c3ccc(F)c(F)c3)CC2)c1O` (stereo not drawn) [3-((4-(2-((3,4-difluorophenyl) (phenyl)methoxy)ethyl)piperazin-1-yl)methyl)benzene-1,2-diol], in series [1] (SH-SY5Y-ODD-luc), the activation at 10 µM is 60%.

Take `O=C1/C(=N\Nc2nccs2)C(c2ccccc2)=NN1c1ccccc1` [I, (Z)-1,3-diphenyl-4-(thiazol-2-yl-hydrazono)-1H-pyrazol-5(4H)-one]: in series [1] (SH-SY5Y-ODD-luc), the activation at 10 µM worked out at 86%. For `CC1=NN(c2ccccc2)C(=O)C1` [edaravone, reference compound], the “reporter activation in HTS, in words” value in series [1] (10 μM) was “no reporter activation”. Turning to `CC(C)n1c(S)nnc1-c1nccc2ccccc12` [V, 4-isopropyl-5-isoquinolin-1-yl-4H-[1,2,4]triazole-3-thiol], the “reporter activation in HTS, in words” value in series [1] (10 μM) is reported as “close to that for the internal standard”. Further, the activation at 10 µM in series [1] (SH-SY5Y-ODD-luc) came out at 90%.

As for `Oc1c(Br)cc(Br)c2cccnc12` [broxyquinoline, reference compound], the “reporter activation in HTS, in words” value in series [1] (10 μM) was “comparable”.

Take `S=C(Nc1ccccc1)Nc1nccs1` [III, 1-phenyl-3-(1,3-thiazol-2-yl)thiourea]: the “fold reporter activation over background” value in series [1] (10 μM, SH-SY5Y-ODD-luc) was “five-fold”. Besides, in series [1] (SH-SY5Y-ODD-luc), the activation at 10 µM was found to be 41%.

Consider `O=C(C=C(O)c1ccccc1)c1ccccc1O` [2′β-dihydroxychalcone], for which, in series [1] (10 μM, SH-SY5Y-ODD-luc), the “fold reporter activation over background” value is 7.5 fold; the “reporter activation (%) relative to ciclopirox (100%) and DMSO (0%)” value was found to be 71%. In the case of `Oc1c(I)cc(Cl)c2cccnc12` [clioquinol, reference compound], the “reporter activation in HTS, in words” value in series [1] (10 μM) was “comparable”. Take `NNc1nc(-c2ccccc2)cc(-c2ccccc2)n1` [II, 2-hydrazinyl-4,6-diphenylpyrimidine]: the “fold reporter activation over background” value in series [1] (10 μM, SH-SY5Y-ODD-luc) was 6.7 fold. Further, in series [1] (SH-SY5Y-ODD-luc), the activation at 10 µM was determined as 64%. For the same compound, in series [3], the “iron binding / chelation ability in solution, in words” value is “no iron chelation properties in solution”. In the case of `O=C(Nc1nnc(-c2cccc(Br)c2)s1)C1CCCN1` (stereo not drawn) [IV, N-[5-(3-bromophenyl)-[1,3,4]thiadiazol-2-yl]pyrrolidine-2-carboxamide], the activation at 10 µM in series [1] (SH-SY5Y-ODD-luc) stood at 35%. `FC(F)(F)c1ccccc1-n1c(S)nnc1-c1nccc2ccccc12` [5-isoquinolin-1-yl-4-(2-trifluoromethyl-phenyl)-4H-[1,2,4]triazole-3-thiol]: the “reporter activation in HTS, in words” value in series [1] (10 μM) is “close to that for the internal standard”. As for `N[C@H](Cc1ccc(O)c(O)c1)C(=O)O` [D-dopa, reference compound], the “reporter activation in HTS, in words” value in series [1] (10 μM) is “not”.

Consider `O=C(CCl)c1ccc(O)c2ncccc12` [chloroacetoquinoline], for which the “reporter activation in HTS, in words” value in series [1] (10 μM) is “comparable to 8-hydroxyquinoline itself”.

For `Oc1c(Cl)cc(Cl)c2cccnc12` [chloroxine, reference compound], the “reporter activation in HTS, in words” value in series [1] (10 μM) is “comparable”. For `COc1ccc(-c2nnc(NC(=O)C(N)Cc3ccccc3)s2)cc1` (stereo not drawn) [2-amino-N-(5-(4-methoxy-phenyl)-[1,3,4]thiadiazol-2-yl)-3-phenylpropanamide], in series [1] (10 μM), the “reporter activation in HTS, in words” value is reported as “no reporter activation at all”.

Take `Oc1cccc(CN2CCCn3cccc3C2c2ccc(F)cc2)c1O` (stereo not drawn) [3-((1-(4-fluorophenyl)-4,5-dihydro-1H-pyrrolo[1,2-a][1,4]diazepin-2(3H)-yl)methyl)benzene-1,2-diol]: the activation at 10 µM in series [1] (SH-SY5Y-ODD-luc) was 40%.

Turning to `C[C@@](Cc1ccc(O)c(O)c1)(NN)C(=O)O` [carbidopa, reference compound], the “reporter activation in HTS, in words” value in series [1] (10 μM) is “not”.
